Measurements taken from patent US12364674B2, “Compounds and combinations thereof for treating neurological and psychiatric conditions” (priority 2022, dated 2025).
Structures can show the parent of a compound that is named as a salt. Where two headings read alike, the source gives them in different places.

Experiments:
[1] = Steady-state pharmacokinetics of dextromethorphan, bupropion and metabolites after administration of the subject combination; conditions: for changes in AUC and Cmax with dose (dose proportionality): steady state, co-administered with bupropion
[2] = Example 1: subject combination in subjects with moderate renal impairment vs matched controls; conditions: moderate renal impairment (GFR 30-60 mL/min)
[3] = Example 3: co-administration of paroxetine and the subject combination in healthy volunteers
Description: Co-administration of the SSRI paroxetine and the subject combination was studied in 29 healthy volunteers.

[4] = Example 2: pharmacokinetics of the subject combination in CYP2D6 poor metabolizers; conditions: 3 CYP2D6 poor metabolizers
Description: Approximately 7 to 10% of Caucasians and 3 to 8% of African Americans lack the capacity to metabolize CYP2D6 substrates and are classified as poor metabolizers.

[5] = Example 4: exposure to the 45 mg dextromethorphan hydrobromide/105 mg bupropion hydrochloride tablet in moderate renal impairment (FIG. 1); conditions: 8 days of twice daily dosing of the tablet
[6] = human, in vivo
[7] = human, in vivo; remark: listed apart in the source

## COc1ccc2c(c1)[C@]13CCCC[C@@H]1[C@H](C2)N(C)CC3 [dextromethorphan, morphinan, 3-methoxy-17-methyl-, (9α, 13α, 14α), hydrobromide monohydrate]
[1]; 8 days of administration of the subject combination, extensive metabolizers
  increase of mean elimination half-life compared to dextromethorphan given without bupropion: approximately 3 fold
[1]; varying doses of bupropion (75 to 150 mg)
  changes in AUC and Cmax with dose (dose proportionality): less than dose-proportional
[1]; varying doses of dextromethorphan (30 to 60 mg)
  changes in AUC and Cmax with dose (dose proportionality): greater than dose-proportional
[1]; subject combination
  mean elimination half-life: 22 h
[2]
  reduction of clearance vs matched controls with normal renal function: 50%
[2]; 7 subjects vs 6 controls
  increase of exposure vs matched controls with normal renal function: approximately 2 fold
[3]; 29 healthy volunteers, paroxetine with the subject combination
  change of overall exposure on co-administration of paroxetine: 2.5 fold
[4]
  increase in AUC0-12 compared to extensive metabolizers: ~3.4 fold
  increase in Cmax compared to extensive metabolizers: ~3 fold
[5]
  increase in AUC0-12 (GMR vs matched healthy subjects): 2.21 fold
  increase in Cmax (GMR vs matched healthy subjects): 2.10 fold

## Fc1ccc([C@@H]2CCNC[C@H]2COc2ccc3c(c2)OCO3)cc1 [paroxetine]
[3]; human, in vivo
  increase of overall exposure of paroxetine when co-administered with the subject combination: 1.2 fold

## CC(NC(C)(C)C)C(=O)c1cccc(Cl)c1.Cl (racemic) [bupropion, (±)-1-(3-chlorophenyl)-2-[(1,1-dimethylethyl)amino]-1-propanone hydrochloride]
[6]
  increase in AUC0-12 (GMR vs matched healthy subjects): 1.80 fold
  increase in Cmax (GMR vs matched healthy subjects): 1.87 fold
[7]
  increase of exposure vs matched controls with normal renal function: approximately 2 fold
  reduction of clearance vs matched controls with normal renal function: 50%
